Experimental data published in ChEMBL document CHEMBL1201862, “PubChem BioAssay data set” (2004).
Calls of active or inactive are those of the source. Cut-off read from the data, not from the text of the source: active = IC50 of 10 µM or less and inactive = more.

Molecular target: Beta Lactamase (Pseudomonas aeruginosa, UniProt Q932Y6)
Test: beta-lactamase reporter inhibitor potency, dose response, artefact control for TLR9-MyD88 binding inhibitor project, BLA reporter cells, FRET fluorescence (AID 588341);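 note: cell based assay in CHO-K1 cells stably expressing beta-lactamase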
Assay type: cell-based

Beta Lactamase, sequence (Q932Y6 whole entry): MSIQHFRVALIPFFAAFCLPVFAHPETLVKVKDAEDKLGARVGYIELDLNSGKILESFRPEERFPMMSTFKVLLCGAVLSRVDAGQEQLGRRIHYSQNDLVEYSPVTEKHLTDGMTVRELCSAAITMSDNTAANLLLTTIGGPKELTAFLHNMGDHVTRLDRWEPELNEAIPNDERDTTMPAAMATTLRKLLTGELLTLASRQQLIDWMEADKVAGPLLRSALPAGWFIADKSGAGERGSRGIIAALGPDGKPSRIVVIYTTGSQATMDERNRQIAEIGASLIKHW

O=[N+]([O-])c1c(Nc2ccccc2O)cc(Cl)c2nonc12
IC50: 18.4 µM (inactive)
